Data taken from PMC8348110, “A Novel Peptide Derived from the Transmembrane Domain of Romo1 Is a Promising Candidate for Sepsis Treatment and Multidrug-Resistant Bacteria” (International Journal of Molecular Sciences, 2021).
Values after ≈ are worked out from the molar mass of the structure shown. Residues, ends and D or L forms follow the SMILES beside them.

Key:
[1] = tested on: Methicillin-resistant S. aureus (MRSA) ATCC 33591; assay type: cell-based, Staphylococcus aureus; settings: ATCC 33591, 1 h
Method: (§1) The minimum bactericidal concentration (MBC) was determined as previously described with minor modifications. Briefly, bacteria were cultured in the mid-log phase and diluted to 5 × 10^5 colony-forming unit (CFU)/mL in 10 mM sodium phosphate buffer (pH 7.4) with a 1% volume of TS broth. They were incubated for 1 h with various peptides which were two-fold diluted serially from 64 μg/mL to 0 μg/mL concentrations in a 96-well plate. The samples were inoculated TS agar plate and incubated overnight at 37 °C. The value of MBC was determined at the lowest concentrations at which no colonies were identified.
(§2) We used the CFU counting method to measure antibacterial activity, with all bacteria cultured to the mid-log phase in an appropriate broth medium. Bacterial CFUs were counted after overnight culture at 37 °C on TS or LB agar plates. The MBC value and antibacterial activity in blood components were determined as previously described. Mouse and human whole blood were collected and diluted with PBS (pH 7.4) to measure the ex vivo antibacterial activity of AMPR-22. For that test, AMPR-22 (10 μg) was added to each whole blood solution and incubated at 37 °C with shaking at 200 rpm. At each time point, it was incubated with bacteria (1 × 10^3 CFU) for 30 min. Each sample was inoculated on an LB agar plate, and CFU counting was performed. To measure the in vivo activity of AMPR-22, 1 × 10^8 CFU of bacteria were injected into BALB/c mice, and an hour later, 10 mg/kg of the test peptides were injected. Blood samples were collected by tail cut, serially diluted with PBS (pH 7.4), and inoculated on LB-agar plates, followed by CFU counting. To estimate the functional half-life of AMPR-22, 40 mg/kg of each tested peptide were injected into mice. Whole blood sampling was performed by cardiac puncture, and the plasma was isolated by centrifugation (2000× g, 15 min). The isolated plasma was incubated with bacteria (1 × 10^3 CFU) for an hour, and then the CFU counting method was performed.

[2] = tested on: Carbapenem-resistant P. aeruginosa (CRPA), clinical isolate; assay type: cell-based, Pseudomonas aeruginosa; settings: 1 h
From the text: Acinetobacter baumannii (ATCC 19606), B. subtilis (ATCC 6633), E. aerogenes (ATCC 13048), E. coli (ATCC 25922), E. faecalis (ATCC 19433), E. faecium (ATCC 19434), K. pneumoniae (ATCC 13883), P. aeruginosa (ATCC 27853), S. aureus (ATCC 29213), S. sindenensis (ATCC 23963), and MRSA (ATCC 33591) were purchased from the American Type Culture Collection (ATCC; Gaithersburg, MD, USA). Streptococcus pneumoniae (NCCP 14585), vancomycin-resistant E. faecium (NCCP 11522), and vancomycin-resistant S. aureus (NCCP 15872) were purchased from the National Culture Collection for Pathogens (NCCP; Cheongju, Korea). The isolation and use of carbapenem-resistant bacterial strains from a patient were approved (2015AN0129) by the Institutional Review Board (IRB) of Korea University Hospital. CRPA, CRKP, and CRAB were clinically isolated in Korea University Hospital (Seoul, Korea). CRPA was confirmed to be resistant to piperacillin, piperacillin-tazobactam, ceftazidime, imipenem, meropenem, gentamicin, amikacin, and ciprofloxacin. CRAB was confirmed to be resistant to piperacillin, piperacillin-tazobactam, cefepime, ceftazidime, imipenem, meropenem, gentamicin, amikacin, and ciprofloxacin. CRKP was confirmed to be resistant to piperacillin-tazobactam, cefepime, ceftazidime, imipenem, gentamicin, and ciprofloxacin. All strains were stored at –80 °C in 50% glycerol and 50% Luria-Bertani (LB) or tryptic soy (TS) broth, grown on LB or TS plates, and aerated at 37 °C.
as §1, §2

[3] = tested on: Pseudomonas aeruginosa ATCC 27853; assay type: cell-based; settings: ATCC 27853, 1 h
Method: as §1, §2

[4] = tested on: Staphylococcus aureus ATCC 29213; assay type: cell-based; settings: ATCC 29213, 1 h, pH 7.4
Method: as §1, §2

`CC[C@H](C)[C@H](NC(=O)CNC(=O)[C@H](CCSC)NC(=O)CNC(=O)[C@@H](NC(=O)[C@H](C)NC(=O)[C@H](CCSC)NC(=O)[C@H](Cc1ccccc1)NC(=O)[C@@H](NC(=O)[C@H](Cc1ccccc1)NC(=O)[C@H](CCCCN)NC(=O)CNC(=O)CNC(=O)[C@H](CCCCN)NC(=O)[C@H](CCCCN)NC(=O)[C@H](CCSC)NC(=O)[C@H](CCSC)NC(=O)[C@H](CCCCN)NC(=O)[C@@H](N)CCCCN)[C@@H](C)O)[C@@H](C)CC)C(=O)N[C@@H](CCCNC(=N)N)C(=O)O` [d68G] (H-KKMMKKGGKFTFMAIGMGIR-OH) was tested, and the “MBC Value, MRSA” value [1] was 4 µg/mL (≈ 1.77 µM), the “MBC Value, CRPA” value [2] was 8 µg/mL (≈ 3.54 µM) and the “MBC Value, P. aeruginosa” value [3] was 4 µg/mL (≈ 1.77 µM). For the same compound, the “MBC Value, S. aureus” value [4] was 4 µg/mL (≈ 1.77 µM).
`CC[C@H](C)[C@H](NC(=O)CNC(=O)[C@H](CCSC)NC(=O)CNC(=O)[C@@H](NC(=O)[C@H](C)NC(=O)[C@H](CCSC)NC(=O)[C@H](Cc1ccccc1)NC(=O)[C@@H](NC(=O)CNC(=O)[C@H](CCCCN)NC(=O)CNC(=O)CNC(=O)[C@H](CCCCN)NC(=O)[C@H](CCCCN)NC(=O)[C@H](CCSC)NC(=O)[C@H](CCSC)NC(=O)[C@H](CCCCN)NC(=O)[C@@H](N)CCCCN)[C@@H](C)O)[C@@H](C)CC)C(=O)N[C@@H](CCCNC(=N)N)C(=O)O` [d67F] (H-KKMMKKGGKGTFMAIGMGIR-OH) was tested, and the “MBC Value, MRSA” value [1] was 4 µg/mL (≈ 1.84 µM), the “MBC Value, CRPA” value [2] was 8 µg/mL (≈ 3.69 µM) and the “MBC Value, P. aeruginosa” value [3] was 4 µg/mL (≈ 1.84 µM). For the same compound, the “MBC Value, S. aureus” value [4] was 8 µg/mL (≈ 3.69 µM).
`CC[C@H](C)[C@H](NC(=O)CNC(=O)[C@H](CCSC)NC(=O)CNC(=O)[C@H](C)NC(=O)[C@H](CCSC)NC(=O)[C@H](Cc1ccccc1)NC(=O)[C@@H](NC(=O)CNC(=O)[C@H](Cc1ccccc1)NC(=O)[C@H](CCCCN)NC(=O)CNC(=O)CNC(=O)[C@H](CCCCN)NC(=O)[C@H](CCCCN)NC(=O)[C@H](CCSC)NC(=O)[C@H](CCSC)NC(=O)[C@H](CCCCN)NC(=O)[C@@H](N)CCCCN)[C@@H](C)O)C(=O)N[C@@H](CCCNC(=N)N)C(=O)O` [d73I] (H-KKMMKKGGKFGTFMAGMGIR-OH) was tested, and the “MBC Value, MRSA” value [1] was >256 µg/mL, the “MBC Value, CRPA” value [2] was >256 µg/mL and the “MBC Value, P. aeruginosa” value [3] was >256 µg/mL.
`CC[C@H](C)[C@H](NC(=O)CNC(=O)[C@H](CCSC)NC(=O)CNC(=O)[C@@H](NC(=O)[C@H](C)NC(=O)[C@H](CCSC)NC(=O)[C@H](Cc1ccccc1)NC(=O)[C@@H](NC(=O)CNC(=O)[C@H](Cc1ccccc1)NC(=O)[C@H](CCCCN)NC(=O)CNC(=O)CNC(=O)[C@H](CCCCN)NC(=O)[C@H](CCSC)NC(=O)[C@H](CCSC)NC(=O)[C@H](CCCCN)NC(=O)[C@@H](N)CCCCN)[C@@H](C)O)[C@@H](C)CC)C(=O)N[C@@H](CCCNC(=N)N)C(=O)O` [d62K] (H-KKMMKGGKFGTFMAIGMGIR-OH) was tested, and the “MBC Value, MRSA” value [1] was 8 µg/mL (≈ 3.65 µM), the “MBC Value, CRPA” value [2] was 8 µg/mL (≈ 3.65 µM) and the “MBC Value, P. aeruginosa” value [3] was 2 µg/mL (≈ 0.913 µM). For the same compound, the “MBC Value, S. aureus” value [4] was 8 µg/mL (≈ 3.65 µM).
For `CC[C@H](C)[C@H](NC(=O)CNC(=O)[C@H](CCSC)NC(=O)CNC(=O)[C@@H](NC(=O)[C@H](C)NC(=O)[C@H](CCSC)NC(=O)[C@H](Cc1ccccc1)NC(=O)[C@@H](NC(=O)CNC(=O)[C@H](Cc1ccccc1)NC(=O)[C@@H](NC(=O)CNC(=O)CNC(=O)[C@H](CO)NC(=O)[C@H](CCCCN)NC(=O)[C@H](CCSC)NC(=O)[C@H](CCSC)NC(=O)[C@H](CCCCN)NC(=O)[C@@H](N)CCCCN)[C@@H](C)O)[C@@H](C)O)[C@@H](C)CC)C(=O)N[C@@H](CCCNC(=N)N)C(=O)O` [K2] (H-KKMMKSGGTFGTFMAIGMGIR-OH), the “MBC Value, MRSA” value [1] was 64 µg/mL (≈ 28.4 µM), the “MBC Value, CRPA” value [2] was 16 µg/mL (≈ 7.11 µM) and the “MBC Value, P. aeruginosa” value [3] was 16 µg/mL (≈ 7.11 µM). For the same compound, the “MBC Value, S. aureus” value [4] was 32 µg/mL (≈ 14.2 µM).
With `CC[C@H](C)[C@H](NC(=O)CNC(=O)[C@H](CCSC)NC(=O)CNC(=O)[C@@H](NC(=O)[C@H](C)NC(=O)[C@H](CCSC)NC(=O)[C@H](Cc1ccccc1)NC(=O)[C@@H](NC(=O)CNC(=O)[C@H](Cc1ccccc1)NC(=O)[C@@H](NC(=O)CNC(=O)CNC(=O)[C@H](CCCCN)NC(=O)[C@H](CCCCN)NC(=O)[C@H](CCSC)NC(=O)[C@H](CCSC)NC(=O)[C@H](CCCCN)NC(=O)[C@@H](N)CCCCN)[C@@H](C)O)[C@@H](C)O)[C@@H](C)CC)C(=O)N[C@@H](CCCNC(=N)N)C(=O)O` [K3] (H-KKMMKKGGTFGTFMAIGMGIR-OH) the “MBC Value, MRSA” value [1] was 32 µg/mL (≈ 14 µM), the “MBC Value, CRPA” value [2] was 8 µg/mL (≈ 3.49 µM) and the “MBC Value, P. aeruginosa” value [3] was 8 µg/mL (≈ 3.49 µM). The “MBC Value, S. aureus” value [4] was 16 µg/mL (≈ 6.98 µM).
In the case of `CC[C@H](C)[C@H](NC(=O)CNC(=O)[C@H](CCSC)NC(=O)CNC(=O)[C@@H](NC(=O)[C@H](C)NC(=O)[C@H](Cc1ccccc1)NC(=O)[C@@H](NC(=O)CNC(=O)[C@H](Cc1ccccc1)NC(=O)[C@H](CCCCN)NC(=O)CNC(=O)CNC(=O)[C@H](CCCCN)NC(=O)[C@H](CCCCN)NC(=O)[C@H](CCSC)NC(=O)[C@H](CCSC)NC(=O)[C@H](CCCCN)NC(=O)[C@@H](N)CCCCN)[C@@H](C)O)[C@@H](C)CC)C(=O)N[C@@H](CCCNC(=N)N)C(=O)O` [d71M] (H-KKMMKKGGKFGTFAIGMGIR-OH), the “MBC Value, MRSA” value [1] is reported as 4 µg/mL, the “MBC Value, CRPA” value [2] is reported as 8 µg/mL and the “MBC Value, P. aeruginosa” value [3] is reported as 2 µg/mL. The “MBC Value, S. aureus” value [4] was 4 µg/mL.
In the case of `CC[C@H](C)[C@H](NC(=O)CNC(=O)[C@H](CCSC)NC(=O)CNC(=O)[C@@H](NC(=O)[C@H](C)NC(=O)[C@H](CCSC)NC(=O)[C@H](Cc1ccccc1)NC(=O)[C@@H](NC(=O)CNC(=O)[C@H](Cc1ccccc1)NC(=O)[C@H](CCCCN)NC(=O)CNC(=O)CNC(=O)[C@H](CCCCN)NC(=O)[C@H](CCCCN)NC(=O)[C@H](CCSC)NC(=O)[C@H](CCCCN)NC(=O)[C@@H](N)CCCCN)[C@@H](C)O)[C@@H](C)CC)C(=O)N[C@@H](CCCNC(=N)N)C(=O)O` [d60M] (H-KKMKKGGKFGTFMAIGMGIR-OH), the “MBC Value, MRSA” value [1] is reported as 1 µg/mL (≈ 0.457 µM), the “MBC Value, CRPA” value [2] is reported as 4 µg/mL (≈ 1.83 µM) and the “MBC Value, P. aeruginosa” value [3] is reported as 2 µg/mL (≈ 0.915 µM). For the same compound, the “MBC Value, S. aureus” value [4] was 4 µg/mL (≈ 1.83 µM).
With `CC[C@H](C)[C@H](NC(=O)CNC(=O)[C@H](CCSC)NC(=O)CNC(=O)[C@@H](NC(=O)[C@H](CCSC)NC(=O)[C@H](Cc1ccccc1)NC(=O)[C@@H](NC(=O)CNC(=O)[C@H](Cc1ccccc1)NC(=O)[C@H](CCCCN)NC(=O)CNC(=O)CNC(=O)[C@H](CCCCN)NC(=O)[C@H](CCCCN)NC(=O)[C@H](CCSC)NC(=O)[C@H](CCSC)NC(=O)[C@H](CCCCN)NC(=O)[C@@H](N)CCCCN)[C@@H](C)O)[C@@H](C)CC)C(=O)N[C@@H](CCCNC(=N)N)C(=O)O` [d72A] (H-KKMMKKGGKFGTFMIGMGIR-OH) the “MBC Value, MRSA” value [1] was 2 µg/mL (≈ 0.89 µM), the “MBC Value, CRPA” value [2] was 4 µg/mL (≈ 1.78 µM) and the “MBC Value, P. aeruginosa” value [3] was 2 µg/mL (≈ 0.89 µM). The “MBC Value, S. aureus” value [4] was 2 µg/mL (≈ 0.89 µM).
With `CC[C@H](C)[C@H](NC(=O)CNC(=O)[C@H](CCSC)NC(=O)CNC(=O)[C@@H](NC(=O)[C@H](C)NC(=O)[C@H](CCSC)NC(=O)[C@@H](NC(=O)CNC(=O)[C@H](Cc1ccccc1)NC(=O)[C@H](CCCCN)NC(=O)CNC(=O)CNC(=O)[C@H](CCCCN)NC(=O)[C@H](CCCCN)NC(=O)[C@H](CCSC)NC(=O)[C@H](CCSC)NC(=O)[C@H](CCCCN)NC(=O)[C@@H](N)CCCCN)[C@@H](C)O)[C@@H](C)CC)C(=O)N[C@@H](CCCNC(=N)N)C(=O)O` [d70F] (H-KKMMKKGGKFGTMAIGMGIR-OH) the “MBC Value, MRSA” value [1] was 128 µg/mL (≈ 59 µM), the “MBC Value, CRPA” value [2] was >256 µg/mL and the “MBC Value, P. aeruginosa” value [3] was 128 µg/mL (≈ 59 µM).
